The source of these data is publication PMC8746695, “Zinc-Chelating Compounds as Inhibitors of Human and Bacterial Zinc Metalloproteases” (Molecules, 2021).

Data set [1] has as its target T1, human MT1-MMP/MMP-14 (catalytic domain) (Homo sapiens, UniProt P50281).
T1 construct: human MT1-MMP/MMP-14 (catalytic domain); purchased Calbiochem (San Diego, CA, USA)
The data set can be described thus: Inhibition of MMP-14, fluorescence quenched peptide substrate McaPLGL(Dpa)AR-NH2. Particulars: for effect of 100 μM compound on MMP-14 activity: pre-incubation 0-45 min; for Ki: substrate McaPLGL(Dpa)AR-NH2 4 µM, 30 min pre-incubation at room temperature, calculated from IC50, read-out: Ki ± s.d. MMP-14. Format: biochemical. Here is the method: (§1) McaPLGL(Dpa)AR-NH2 was used as a substrate for MMP-9 and MMP-14, while McaRPPGFSAFK(Dnp)-OH was used as substrate for ALN, PLN and TLN. The reaction velocities/initial rates (v) were determined at 37 °C, at an excitation wavelength of 320 nm and an emission wavelength of 405 nm with a slit width of 10 nm using either a Perkin Elmer LS 50 Luminescence spectrometer and the FL WinLab Software Package (Perkin Elmer) or a Clario Star microplate reader (CLARIOstar® BMG LABTECH).
(§2) The test compounds were dissolved in 100% DMSO giving a concentration of 10 mM. A fixed substrate concentration of 4.0 µM in a total volume of 100 µL 0.1 M Hepes pH 7.5, 10 mM CaCl2, 0.005% Brij-35 and 1.0% DMSO, were used in all assays, except for ALN where the substrate concentration was 5.0 µM. The fixed enzyme concentrations were as follows; 0.05 nM MMP-9, 1.0 nM MMP-14, 1.4 nM ALN, 0.5 nM PLN and 0.21 nM TLN. Time-dependent inhibitory experiments without and with 100 μM of testing compounds were performed as follows. Compounds were either pre-incubated with the proteases for 15, 30 and 45 min at room temperature and the enzymatic reaction was started by adding the substrate, or not pre-incubated, i.e., the reaction was started by adding the protease to the mixture of substrate and compound. Control tests without compound present were performed in the same way. The reaction was followed for 30 min at 37 °C.
(§3) Enzymes with and without inhibitor were pre-incubated for 30 min at room temperature, and initial rate assays were performed as described above. Assays were performed using a Clario Star microplate reader (CLARIOstar® BMG LABTECH). The IC50 values were calculated in Graph Pad Prism 5 using Equation (1):(1) vi/v0=1/(1+10^(pIC50−pI)) where vi is the enzyme activity in the presence of inhibitor, v0 the activity in the absence of inhibitor, pI = −log [Inhibitor] in M and pIC50 = −log IC50 in M. All experiments were performed in at least triplicate.

The target in the next data set is T2, pseudolysin (PLN) (Pseudomonas aeruginosa, UniProt P14756).
T2 construct: purchased Calbiochem (San Diego, CA, USA)
The data set can be described thus: Inhibition of pseudolysin (PLN), substrate McaRPPGFSAFK(Dnp)-OH. In kind it is biochemical. Particulars: for effect of 100 μM compound on PLN activity: pre-incubation 0-45 min. Here is the method:
as §1, §2, §3

The next data set has as its target T3, aureolysin (ALN) (Staphylococcus aureus, UniProt P81177).
T3 construct: purchased BioCentrum Ltd. (Kraków, Poland)
The data set can be described thus: Inhibition of aureolysin (ALN), substrate McaRPPGFSAFK(Dnp)-OH. Particulars: for effect of 100 μM compound on ALN activity: pre-incubation 0-45 min. In kind it is biochemical. The protocol:
as §1, §2, §3

In the next data set the target is T4, thermolysin (TLN) (Bacillus thermoproteolyticus, UniProt P00800).
T4 construct: purchased Calbiochem (San Diego, CA, USA)
The data set can be described thus: Inhibition of thermolysin (TLN), substrate McaRPPGFSAFK(Dnp)-OH. The following applies: for effect of 100 μM compound on TLN activity: pre-incubation 0-45 min; for Ki: substrate McaRPPGFSAFK(Dnp)-OH 4 µM, 30 min pre-incubation at room temperature, calculated from IC50, read-out: Ki ± s.d. TLN. In kind it is biochemical. Here is the method: as §1, §2, §3

For data set [2] the following is noted: cited from earlier work.
The next data set deals with VIM-2. Details: method as in PMID 32179522. The following applies: cited from earlier work.
Another data set concerns NDM-1. Details: method as in PMID 32179522. The following applies: cited from earlier work.
A further data set has as its system Gram-negative pathogens. On the set-up: method as in PMID 32179522. Particulars: cited from earlier work.
For data set [3] the following is noted: cited from earlier work. The source holds these as a separate data set.
The target of a further data set is T5, recombinant human MMP-9 (Homo sapiens, UniProt P14780).
T5 construct: made in house; host or cells: Sf9 insect cells
The data set can be described thus: Inhibition of MMP-9, fluorescence quenched peptide substrate McaPLGL(Dpa)AR-NH2. Format: biochemical. Particulars: for Ki: substrate McaPLGL(Dpa)AR-NH2 4 µM, 30 min pre-incubation at room temperature, calculated from IC50, read-out: Ki ± s.d. MMP-9; for effect of 100 μM compound on MMP-9 activity: pre-incubation 0-45 min. Here is the method:
The expression and purification of recombinant human full-length proMMP-9 (rpMMP-9) from Sf9 insect cells were performed as described previously. The amount of proMMP-9 was estimated spectrophotometrically at 280 nm using ε280 nm = 114.36 mM^−1 cm^−1 [48]. Activation of the recombinant proMMP-9 was performed with APMA (auto-activation) as described previously. The amount of active MMP-9 was determined by active site titration using galardin also described previously.
as §1, §2, §3

“Also recorded” adds a separate entry of the source. Like-named read-outs stand apart in the source and are kept apart here.

T3 sequence (P81177 209-509): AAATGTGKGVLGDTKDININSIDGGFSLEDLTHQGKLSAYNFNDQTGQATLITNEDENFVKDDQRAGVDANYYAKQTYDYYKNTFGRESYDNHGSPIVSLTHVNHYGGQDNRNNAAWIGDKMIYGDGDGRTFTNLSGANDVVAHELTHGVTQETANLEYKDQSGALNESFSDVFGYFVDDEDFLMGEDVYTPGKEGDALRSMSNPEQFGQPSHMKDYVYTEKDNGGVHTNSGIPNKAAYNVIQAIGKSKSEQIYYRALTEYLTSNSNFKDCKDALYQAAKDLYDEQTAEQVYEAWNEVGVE
T5 sequence (P14780 107-707 limits assumed): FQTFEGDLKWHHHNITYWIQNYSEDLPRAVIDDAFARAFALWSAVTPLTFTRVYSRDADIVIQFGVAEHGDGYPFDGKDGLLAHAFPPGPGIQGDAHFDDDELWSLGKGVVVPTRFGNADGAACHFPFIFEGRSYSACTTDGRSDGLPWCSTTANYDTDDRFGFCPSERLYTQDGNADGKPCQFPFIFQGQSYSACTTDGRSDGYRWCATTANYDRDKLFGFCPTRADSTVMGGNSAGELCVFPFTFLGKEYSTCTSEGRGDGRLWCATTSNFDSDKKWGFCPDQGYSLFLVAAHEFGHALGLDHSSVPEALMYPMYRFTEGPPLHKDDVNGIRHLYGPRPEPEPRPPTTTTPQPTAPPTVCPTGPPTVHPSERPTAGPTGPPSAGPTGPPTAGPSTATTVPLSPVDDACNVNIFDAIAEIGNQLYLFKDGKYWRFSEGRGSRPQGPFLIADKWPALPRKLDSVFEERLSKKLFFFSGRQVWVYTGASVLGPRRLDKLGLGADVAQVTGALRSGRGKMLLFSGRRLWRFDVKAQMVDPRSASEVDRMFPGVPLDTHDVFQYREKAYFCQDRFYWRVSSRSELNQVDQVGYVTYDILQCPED
T4 sequence (P00800 233-548): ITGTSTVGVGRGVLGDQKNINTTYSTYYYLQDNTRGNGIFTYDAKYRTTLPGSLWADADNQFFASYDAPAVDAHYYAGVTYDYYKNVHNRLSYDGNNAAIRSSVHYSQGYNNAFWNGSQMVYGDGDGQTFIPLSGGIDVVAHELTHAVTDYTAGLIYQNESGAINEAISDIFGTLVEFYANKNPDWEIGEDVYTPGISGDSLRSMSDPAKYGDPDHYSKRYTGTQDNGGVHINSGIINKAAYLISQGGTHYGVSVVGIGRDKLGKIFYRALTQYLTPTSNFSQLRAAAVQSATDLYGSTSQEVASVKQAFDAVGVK
T2 sequence (P14756 198-498): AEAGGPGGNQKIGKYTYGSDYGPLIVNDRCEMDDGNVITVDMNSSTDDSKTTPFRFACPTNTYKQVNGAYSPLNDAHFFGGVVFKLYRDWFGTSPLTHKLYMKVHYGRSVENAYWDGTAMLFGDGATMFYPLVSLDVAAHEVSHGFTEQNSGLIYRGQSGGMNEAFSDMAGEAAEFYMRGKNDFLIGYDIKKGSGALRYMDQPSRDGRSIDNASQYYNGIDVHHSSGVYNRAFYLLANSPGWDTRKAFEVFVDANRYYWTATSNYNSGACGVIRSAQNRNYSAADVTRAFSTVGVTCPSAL

On to `COC(=O)c1ccc(CN(Cc2cccs2)Cc2cccs2)s1` [Zn215], for which, in data set [1], the “effect of 100 μM compound on MMP-14 activity” value (“effect … on MMP-14 activity” below) is reported as “weak inhibition or lack of inhibition”. The “effect of 100 μM compound on PLN activity” value (“effect … on PLN activity” for short) on pseudolysin (PLN) is recorded as “weak inhibition or lack of inhibition”.
What is called Ki is a dissociation constant, usually derived from enzyme kinetics or from competition with a known ligand. By IC50 is commonly meant the concentration at which inhibition is half-maximal. In general, Kd refers to a measure of binding affinity in units of concentration. Turning to `CN(C[C@H](O)[C@@H](O)[C@H](O)[C@H](O)CO)C(=O)c1ccc(CN(Cc2ccccn2)Cc2ccccn2)nc1` [Zn148], the Ki in data set [1] was 8.6 ± 0.7 µM; on pseudolysin (PLN) it was 5 ± 2 µM. Moreover, at aureolysin (ALN), the “effect of 100 μM compound on ALN activity” value (shortened to “effect … on ALN activity”) is listed as “no or only a limited effect”. In addition, the 50% inhibitory concentration (IC50) against pseudolysin (PLN) is 6.07 ± 0.08 µM. In addition, the “effect of 100 μM compound on TLN activity” value (“effect … on TLN activity” below) on thermolysin (TLN) is “no or only a limited effect”. In data set [2] (read-out: Kd (zinc)), the Kd was 0.001 nM. Also, in the data set on VIM-2, the “inactivation of MBL VIM-2” value was “irreversible inhibitor”. Moreover, the “inactivation of MBL NDM-1” value in the data set on NDM-1 is on record as “irreversible inhibitor”. Moreover, the “reversal of carbapenem resistance in Gram-negative pathogens” value (from here on “reversal of carbapenem resistance”) in the data set with Gram-negative pathogens is recorded as “reverse carbapenem resistance”. Further, the acute toxicity entry in data set [3] (female BALB/c mice) is recorded as “limited in vivo toxicity”; in data set [3] (mouse, in vivo), “without acute toxicity”.
Turning to `CC(=O)OC[C@@H](OC(C)=O)[C@@H](OC(C)=O)[C@H](OC(C)=O)[C@H](CN(C)C(=O)c1ccc(CN(Cc2ccccn2)Cc2ccccn2)nc1)OC(C)=O` [Zn224], the inhibitory constant (Ki) in data set [1] was 4.5 ± 0.4 µM; at pseudolysin (PLN), 13 ± 4 µM.
Turning to `COC(=O)c1ccc(CN(Cc2cccs2)Cc2cccs2)nc1` [Zn216], the “effect … on MMP-14 activity” value in data set [1] is reported as “weak inhibition or lack of inhibition”. The “effect … on PLN activity” value on pseudolysin (PLN) was “weak inhibition or lack of inhibition”.
Regarding `COC(=O)c1ccc(CN(Cc2ccccn2)Cc2ccccn2)nc1` [Zn145], the inhibitory constant (Ki) in data set [1] is 1.5 ± 0.1 µM; on pseudolysin (PLN), 12 ± 4 µM.
Turning to `O=C(NC[C@H](O)[C@@H](O)[C@H](O)[C@H](O)CO)c1ccc(CN(Cc2ccccn2)Cc2ccccn2)nc1` [Zn230], the Ki in data set [1] is 3.5 ± 0.3 µM; on recombinant human MMP-9, 22 ± 6 µM; on aureolysin (ALN) it was 20 ± 2 µM; at pseudolysin (PLN), 1.1 ± 0.3 µM; at thermolysin (TLN), 12 ± 2 µM.
For the molecule `CCN(C[C@H](O)[C@@H](O)[C@H](O)[C@H](O)CO)C(=O)c1ccc(CN(Cc2ccccn2)Cc2ccccn2)nc1` [Zn225], the Ki in data set [1] was 4.5 ± 0.4 µM; on recombinant human MMP-9, 28 ± 7 µM; at pseudolysin (PLN) it was 5 ± 2 µM; on thermolysin (TLN), 9 ± 2 µM.
The corresponding values for `O=C(NCc1ccc(CN(Cc2ccccn2)Cc2ccccn2)nc1)C1OC(O)C(O)C(O)C1O` (stereo not shown) [Zn227] are 4.8 ± 0.4 µM, 77 ± 19 µM, 9 ± 3 µM and 11 ± 2 µM.
As for `CN(C[C@H](O)[C@@H](O)[C@H](O)[C@H](O)CO)C(=O)c1ccc(CN(Cc2ccccc2)Cc2ccccn2)nc1` [Zn223], the “effect … on MMP-14 activity” value in data set [1] is recorded as “weaker binding than Zn148; also recorded: binding was prevented”. Besides, the “effect of 100 μM compound on MMP-9 activity” value on recombinant human MMP-9 was “weaker binding than Zn148”. The “effect … on ALN activity” value on aureolysin (ALN) is given as “no effect”. At pseudolysin (PLN), the “effect … on PLN activity” value is “weaker binding than Zn148”. In addition, the “effect … on TLN activity” value at thermolysin (TLN) is recorded as “no effect”. Moreover, the Kd in [2] (read-out: Kd (zinc)) is 100 nM. Further, the “inactivation of MBL VIM-2” value in the data set on VIM-2 is recorded as “reduced capability to inactivate”. Also, the “inactivation of MBL NDM-1” value in the data set on NDM-1 is “reduced capability to inactivate”. Further, the “reversal of carbapenem resistance” value in the data set with Gram-negative pathogens is “lacked the ability to reverse carbapenem resistance”.
On to `O=C(O)c1ccc(CN(Cc2ccccn2)Cc2ccccn2)nc1` [Zn146], for which the Ki in data set [1] was 3.8 ± 0.3 µM; at recombinant human MMP-9 it was 21 ± 5 µM; on aureolysin (ALN), 25 ± 2 µM; at pseudolysin (PLN) it was 4 ± 1 µM.
On to `CC(N)C(=O)NC(C)C(=O)N1CCN(C(=O)c2ccc(CN(Cc3ccccn3)Cc3ccccn3)nc2)CC1` (stereo not shown) [Zn177], for which the Ki in data set [1] was 11.2 ± 0.9 µM; at recombinant human MMP-9 it was 56 ± 14 µM; on pseudolysin (PLN), 11 ± 4 µM.
For `COC(=O)Cc1ccc(NC(=O)c2ccc(CN(Cc3ccccn3)Cc3ccccn3)nc2)cc1` [Zn244], the inhibitory constant (Ki) in data set [1] was 4 ± 0.3 µM; on recombinant human MMP-9 it was 22 ± 6 µM; on pseudolysin (PLN) it was 4 ± 1 µM. Besides, it took 4.46 ± 0.05 µM to reach half-maximal inhibition at pseudolysin (PLN) (IC50).
As to `NCCc1ccc(NC(=O)CN(CCN(Cc2ccccn2)Cc2ccccn2)Cc2ccccn2)cc1` [Zn45], the Ki was 2.5 ± 0.2 µM in data set [1], 2.8 ± 0.9 µM on pseudolysin (PLN) and 7 ± 1 µM at thermolysin (TLN).
In the case of `CN(C[C@H](O)[C@@H](O)[C@H](O)[C@H](O)CO)C(=O)c1ccc(CN(Cc2ccccc2)Cc2ccccc2)nc1` [Zn222], in data set [1], the “effect … on MMP-14 activity” value is “weaker binding than Zn148; also recorded: binding was prevented”. The “effect of 100 μM compound on MMP-9 activity” value at recombinant human MMP-9 is listed as “weaker binding than Zn148”. Moreover, the “effect … on ALN activity” value on aureolysin (ALN) is reported as “no effect”. Further, on pseudolysin (PLN), the “effect … on PLN activity” value was “weaker binding than Zn148”. The “effect … on TLN activity” value on thermolysin (TLN) is “no effect”. In data set [2] (read-out: Kd (zinc)), the Kd was 1000 nM. Moreover, the “inactivation of MBL VIM-2” value with VIM-2 is given as “did not inactivate”. For the same molecule, the “inactivation of MBL NDM-1” value in the data set with NDM-1 is listed as “did not inactivate”. Also, in the data set on Gram-negative pathogens, the “reversal of carbapenem resistance” value is on record as “lacked the ability to reverse carbapenem resistance”.
Consider `CC(N)C(=O)NC(C)C(=O)NCCc1ccc(NC(=O)c2ccc(CN(Cc3ccccn3)Cc3ccccn3)nc2)cc1` (stereo not shown) [Zn155], for which the Ki in data set [1] is 2.4 ± 0.2 µM; on recombinant human MMP-9 it was 26 ± 6 µM; on aureolysin (ALN) it was 60 ± 6 µM; at pseudolysin (PLN), 6 ± 2 µM.
On to `c1ccc(CNCc2ccccn2)nc1` [DPA, di(2-pyridinemethyl)amine, reference compound], for which, in [1], the “effect … on MMP-14 activity” value was “greatly enhanced”. Further, on pseudolysin (PLN), the Ki came to 4 ± 1 µM and the “effect … on PLN activity” value is “Moderately strong inhibition”. Also, the dissociation constant Kd in [2] (read-out: Kd (zinc-binder)) was around 10 nM.
Take `O=C(NCCc1ccc(NC(=O)c2ccc(CN(Cc3ccccn3)Cc3ccccn3)nc2)cc1)c1ccc(CN(Cc2ccccn2)Cc2ccccn2)nc1` [Zn175]: the results for the inhibition constant Ki at recombinant human MMP-9, at aureolysin (ALN) and on pseudolysin (PLN) were 6 ± 2 µM, 14 ± 1 µM and 7 ± 2 µM, respectively.
In the case of `O=C(O)c1ccc(CN(CCN(Cc2ccccn2)Cc2ccccn2)Cc2ccc(C(=O)O)cn2)nc1` [Zn239], the Ki was 6.1 ± 0.5 µM in [1], 58 ± 14 µM at recombinant human MMP-9, 5 ± 2 µM at pseudolysin (PLN) and 32 ± 5 µM on thermolysin (TLN).
